From patent publication US10328075B2, “Method of treatment and compounds for use therein” (Baker Heart and Diabetes Institute, priority 2015, dated 2019)
No end group written: not given here.

Assay: Body and organ weights of mice after myocardial I-R
Format: in vivo, mouse
Settings: for Body Weight / Organ weight (mg), LV / Organ weight (mg), RV / Organ weight (mg), atria / Organ weight (mg), heart / Organ weight (mg), lung / Organ weight: body weight (mg/g), LV / Organ weight: body weight (mg/g), RV / Organ weight: body weight (mg/g), atria / Organ weight: body weight (mg/g), heart / Organ weight: body weight (mg/g), lung / Heart weight normalized to body weight versus sham / Effect on total heart weight and LV weight normalized to body weight: mice; for Body Weight (BW, g) / Organ weight: BW (mg/g), LV / Organ weight: BW (mg/g), RV / Organ weight: BW (mg/g), atria / Organ weight: BW (mg/g), heart / Organ weight: BW (mg/g), lung / BW: Table 7; for Heart weight normalized to body weight versus sham: 48 h reperfusion; for Effect on total heart weight and LV weight normalized to body weight: 7 days reperfusion
Method: Sample collection: After the study period (24 h, 48 h or 7 d), infarcted or sham-operated mice were euthanised, blood was collected by cardiac puncture using a 25G needle and 1 mL syringe coated with heparin (500 U/mL). Plasma was collected from mice after 24 h reperfusion to assess levels of cardiac troponin I (cTnI) levels; whole blood was collected from mice after 48 h reperfusion to assess total and differential white blood cell (WBC) numbers in the circulation. Lungs, atria, left and right ventricles were dissected, blotted dry, and weighed. Left ventricles (LV) were cut in half at the occlusion site, with the upper part fixed in Neutral Buffer Formalin (NBF, Thermo Fisher Scientific, Melbourne, Australia) and the apex placed in Tissue-Tek® optimal cutting temperature (OCT) compound (Tissue-Tek, Torrance, USA) for storage at −80° C.
Body and organ weights were measured to examine effects of drug treatments on systemic and cardiac characteristics in mice subjected to myocardial ischaemia-reperfusion injury or sham operation. Although there was no difference between the two vehicles (10% DMSO) in saline i.v. vs. 10% DMSO containing 0.8% Tween 20 in saline, i.p.), data from these two groups were combined for group analysis.
Assessment of cardiac inflammation in vivo: Lungs, atria, left and right ventricles from mice in Cohort 3 (following 60 min ischemia and 48 h reperfusion, optimal timing for detecting cardiac leukocyte infiltration) were dissected, blotted dry, and weighed. LV were cut in half at the occlusion site, and the apical half placed in Tissue-Tek® optimal cutting temperature compound (Tissue-Tek, Torrance, USA) for storage at −80° C. LV tissues were then sectioned at 6 μm for immunofluorescent detection of cardiac macrophage and neutrophil content. Sections were pre-incubated with 4% paraformaldehyde for 20 min and 10% normal goat serum for a further 30 min. Sections were then incubated at RT with either CD68+ primary antibody or Ly-6B.2 primary antibody (1:200, ABD Serotec, Raleigh, USA) for 1 h, followed by 30 min incubation with the Alexa Fluor 546 secondary antibody (1:200, Invitrogen, Carlsbad, USA). Finally, sections were incubated with 0.001% Hoechst 33342 (Invitrogen, Melbourne, Australia) for 30 min, to elicit nuclear staining. Single images were photographed using a Nikon A1R confocal microscope (Nikon Instruments Inc., NY, USA) under 20× magnification, and 9×9 single images were then automatically stitched together using NIS-Elements AR software (version 4.10 for Windows, Nikon Instruments Inc., NY, USA) to form each complete composite LV image. The images for infarct area were captured under 40× magnification, and the stitched images were then analyzed using Fiji software (version 1.48c for Max OS X, National Institutes of Health, USA). The threshold was set for each image, to enable optimal sensing and quantification of red fluorescence intensity above threshold, and the software then automatically quantified these red fluorescent signals.

COc1cccc(Cc2cc(C)nn(C(C)C(=O)Nc3ccc(Br)cc3)c2=O)c1 (stereo not drawn) [BIDI-001, N-(4-bromophenyl)-2-[5-(3-methoxybenzyl)-3-methyl-6-oxo-6H-pyridazin-1-yl]-propionamide]
Body Weight (Table 5, 48 h myocardial I-R): 28.2 ± 1.0 g | Organ weight (mg), LV (Table 5, 48 h myocardial I-R): 105.0 ± 8.3 mg | Organ weight (mg), RV (Table 5, 48 h myocardial I-R): 24.9 ± 3.1 mg | Organ weight (mg), atria (Table 5, 48 h myocardial I-R): 14.6 ± 1.2 mg | Organ weight (mg), heart (Table 5, 48 h myocardial I-R): 147 ± 11 mg | Organ weight (mg), lung (Table 5, 48 h myocardial I-R): 157 ± 6 mg | Organ weight: body weight (mg/g), LV (Table 5, 48 h myocardial I-R): 3.7 ± 0.2 mg/g | Organ weight: body weight (mg/g), RV (Table 5, 48 h myocardial I-R): 1.0 ± 0.0 mg/g | Organ weight: body weight (mg/g), atria (Table 5, 48 h myocardial I-R): 0.5 ± 0.0 mg/g | Organ weight: body weight (mg/g), heart (Table 5, 48 h myocardial I-R): 5.2 ± 0.3 mg/g | Organ weight: body weight (mg/g), lung (Table 5, 48 h myocardial I-R): 5.6 ± 0.2 mg/g | Body Weight (Table 6, 7 d myocardial I-R): 24.3 ± 0.5 g | Organ weight (mg), LV (Table 6, 7 d myocardial I-R): 70.1 ± 2.9 mg | Organ weight (mg), RV (Table 6, 7 d myocardial I-R): 19.0 ± 1.0 mg | Organ weight (mg), atria (Table 6, 7 d myocardial I-R): 7.3 ± 0.8 mg | Organ weight (mg), heart (Table 6, 7 d myocardial I-R): 96 ± 4 mg | Organ weight (mg), lung (Table 6, 7 d myocardial I-R): 132 ± 3 mg | Organ weight: body weight (mg/g), LV (Table 6, 7 d myocardial I-R): 2.9 ± 0.1 mg/g | Organ weight: body weight (mg/g), RV (Table 6, 7 d myocardial I-R): 0.8 ± 0.3 mg/g | Organ weight: body weight (mg/g), atria (Table 6, 7 d myocardial I-R): 0.3 ± 0.0 mg/g | Organ weight: body weight (mg/g), heart (Table 6, 7 d myocardial I-R): 4.0 ± 0.1 mg/g | Organ weight: body weight (mg/g), lung (Table 6, 7 d myocardial I-R): 4.7 ± 0.7 mg/g | Body Weight (BW, g) (48 h myocardial I-R): 28 ± 1 g | Organ weight: BW (mg/g), LV (48 h myocardial I-R): 3.7 ± 0.2 mg/g | Organ weight: BW (mg/g), RV (48 h myocardial I-R): 1.0 ± 0.0 mg/g | Organ weight: BW (mg/g), atria (48 h myocardial I-R): 0.5 ± 0.0 mg/g | Organ weight: BW (mg/g), heart (48 h myocardial I-R): 5.2 ± 0.3 mg/g | Organ weight: BW (mg/g), lung (48 h myocardial I-R): 5.6 ± 0.2 mg/g | BW (7 days myocardial I-R): 24 ± 1 g | Organ weight: BW (mg/g), LV (7 days myocardial I-R): 2.9 ± 0.1 mg/g | Organ weight: BW (mg/g), RV (7 days myocardial I-R): 0.8 ± 0.3 mg/g | Organ weight: BW (mg/g), atria (7 days myocardial I-R): 0.3 ± 0.0 mg/g | Organ weight: BW (mg/g), heart (7 days myocardial I-R): 4.0 ± 0.1 mg/g | Organ weight: BW (mg/g), lung (7 days myocardial I-R): 5.4 ± 0.1 mg/g | Heart weight normalized to body weight versus sham: significantly increased | Effect on total heart weight and LV weight normalized to body weight: significantly reduced

CC(C)C1C(NC(=O)Nc2ccc(Cl)cc2)C(=O)N(c2ccccc2)N1C (stereo not drawn) [BIDI-002]
Body Weight (Table 5, 48 h myocardial I-R): 27 ± 0.6 g | Organ weight (mg), LV (Table 5, 48 h myocardial I-R): 94.9 ± 7.5 mg | Organ weight (mg), RV (Table 5, 48 h myocardial I-R): 22.9 ± 1.7 mg | Organ weight (mg), atria (Table 5, 48 h myocardial I-R): 9.9 ± 2.8 mg | Organ weight (mg), heart (Table 5, 48 h myocardial I-R): 132 ± 11 mg | Organ weight (mg), lung (Table 5, 48 h myocardial I-R): 154 ± 6 mg | Organ weight: body weight (mg/g), LV (Table 5, 48 h myocardial I-R): 3.5 ± 0.2 mg/g | Organ weight: body weight (mg/g), RV (Table 5, 48 h myocardial I-R): 0.8 ± 0.0 mg/g | Organ weight: body weight (mg/g), atria (Table 5, 48 h myocardial I-R): 0.5 ± 0.1 mg/g | Organ weight: body weight (mg/g), heart (Table 5, 48 h myocardial I-R): 4.8 ± 0.3 mg/g | Organ weight: body weight (mg/g), lung (Table 5, 48 h myocardial I-R): 5.7 ± 0.1 mg/g | Body Weight (Table 6, 7 d myocardial I-R): 23.8 ± 0.9 g | Organ weight (mg), LV (Table 6, 7 d myocardial I-R): 89.0 ± 4.2 mg | Organ weight (mg), RV (Table 6, 7 d myocardial I-R): 21.4 ± 1.6 mg | Organ weight (mg), atria (Table 6, 7 d myocardial I-R): 7.8 ± 0.5 mg | Organ weight (mg), heart (Table 6, 7 d myocardial I-R): 118 ± 6 mg | Organ weight (mg), lung (Table 6, 7 d myocardial I-R): 138 ± 7 mg | Organ weight: body weight (mg/g), LV (Table 6, 7 d myocardial I-R): 3.7 ± 0.1 mg/g | Organ weight: body weight (mg/g), RV (Table 6, 7 d myocardial I-R): 0.9 ± 0.1 mg/g | Organ weight: body weight (mg/g), atria (Table 6, 7 d myocardial I-R): 0.3 ± 0.0 mg/g | Organ weight: body weight (mg/g), heart (Table 6, 7 d myocardial I-R): 5.0 ± 0.2 mg/g | Organ weight: body weight (mg/g), lung (Table 6, 7 d myocardial I-R): 5.8 ± 0.3 mg/g | Body Weight (BW, g) (48 h myocardial I-R): 27 ± 1 g | Organ weight: BW (mg/g), LV (48 h myocardial I-R): 3.5 ± 0.2 mg/g | Organ weight: BW (mg/g), RV (48 h myocardial I-R): 0.8 ± 0.0 mg/g | Organ weight: BW (mg/g), atria (48 h myocardial I-R): 0.5 ± 0.1 mg/g | Organ weight: BW (mg/g), heart (48 h myocardial I-R): 4.8 ± 0.3 mg/g | Organ weight: BW (mg/g), lung (48 h myocardial I-R): 5.7 ± 0.1 mg/g | BW (7 days myocardial I-R): 24 ± 1 g | Organ weight: BW (mg/g), LV (7 days myocardial I-R): 3.7 ± 0.1 mg/g | Organ weight: BW (mg/g), RV (7 days myocardial I-R): 0.9 ± 0.1 mg/g | Organ weight: BW (mg/g), atria (7 days myocardial I-R): 0.3 ± 0.0 mg/g | Organ weight: BW (mg/g), heart (7 days myocardial I-R): 5.0 ± 0.2 mg/g | Organ weight: BW (mg/g), lung (7 days myocardial I-R): 5.8 ± 0.3 mg/g | Effect on total heart weight and LV weight normalized to body weight: not | Effect on total heart weight and LV weight normalized to body weight (listed as Cmpd43): not shared

Ac2-26: Annexin-A1 N-terminal peptide, peptide ANX-A1 mimetic (Ac-AMVSEFLKQAWFIENEEQEYVQTVK; UniProt P04083 2-26, looked up, fragment)
Body Weight (Table 5, 48 h myocardial I-R): 28.2 ± 1.0 g | Organ weight (mg), LV (Table 5, 48 h myocardial I-R): 109.8 ± 5.5 mg | Organ weight (mg), RV (Table 5, 48 h myocardial I-R): 24.3 ± 0.9 mg | Organ weight (mg), atria (Table 5, 48 h myocardial I-R): 10.1 ± 0.7 mg | Organ weight (mg), heart (Table 5, 48 h myocardial I-R): 144 ± 6 mg | Organ weight (mg), lung (Table 5, 48 h myocardial I-R): 145 ± 9 mg | Organ weight: body weight (mg/g), LV (Table 5, 48 h myocardial I-R): 3.8 ± 0.2 mg/g | Organ weight: body weight (mg/g), RV (Table 5, 48 h myocardial I-R): 0.8 ± 0.0 mg/g | Organ weight: body weight (mg/g), atria (Table 5, 48 h myocardial I-R): 0.3 ± 0.0 mg/g | Organ weight: body weight (mg/g), heart (Table 5, 48 h myocardial I-R): 5.0 ± 0.2 mg/g | Organ weight: body weight (mg/g), lung (Table 5, 48 h myocardial I-R): 5.0 ± 0.3 mg/g | Body Weight (Table 6, 7 d myocardial I-R): 25.6 ± 1.0 g | Organ weight (mg), LV (Table 6, 7 d myocardial I-R): 102.9 ± 6.5 mg | Organ weight (mg), RV (Table 6, 7 d myocardial I-R): 17.8 ± 2.4 mg | Organ weight (mg), atria (Table 6, 7 d myocardial I-R): 8.3 ± 1.0 mg | Organ weight (mg), heart (Table 6, 7 d myocardial I-R): 129 ± 10 mg | Organ weight (mg), lung (Table 6, 7 d myocardial I-R): 147 ± 7 mg | Organ weight: body weight (mg/g), LV (Table 6, 7 d myocardial I-R): 4.0 ± 0.2 mg/g | Organ weight: body weight (mg/g), RV (Table 6, 7 d myocardial I-R): 0.7 ± 0.1 mg/g | Organ weight: body weight (mg/g), atria (Table 6, 7 d myocardial I-R): 0.3 ± 0.0 mg/g | Organ weight: body weight (mg/g), heart (Table 6, 7 d myocardial I-R): 5.0 ± 0.2 mg/g | Organ weight: body weight (mg/g), lung (Table 6, 7 d myocardial I-R): 5.7 ± 0.2 mg/g | Heart weight normalized to body weight versus sham: significantly increased | Effect on total heart weight and LV weight normalized to body weight: not
